Tested on: primary human T cells
Experiment: Boyden chamber migration assay of T cells transduced with CXCR4 variants
Format: cell-based
Conditions: 100 nM wild-type CXCL12 full-length chemokine
Protocol: T cells transduced and selected for CXCR4 variant expression from 3-6 donors were stained with 1 uM Vybrant DiO cell-labeling solution (Thermo, ref. V22886) in serum-free RPMI 1640+GlutaMax. 40,000 cells in 75 uL were seeded in each well of 96-well Boyden chambers with 5.0 μm pores (Corning, ref. 3388)^42. Reservoirs were filled with 200 uL serum-free RPMI 1640+GlutaMax or supplemented with 100 nM chemokine. The bottom of the attractant reservoir was imaged for migrated cells over the course of 8 hours with a Cytation 5 BioSpa (Biotek) at 37° C. with 5% CO2. Fluorescent spots were counted over time and compared to the no-chemokine control to calculate the migration index (#migrated cells towards attractant/#migrated cells towards no-attractant). The peak migration index was averaged between 3 technical replicates for each transduced donor per attractant concentration were plotted.

In the case of “WT CXCR4: wild-type human CXCR4 (SEQ ID NO: 1; with N-terminal 3xHA-tag SEQ ID NO: 2)”, the “migration (fold-migration over no-chemoattractant control)” value is reported as “around 1.5 fold”.
